From patent publication US8431525B2, “Coelenteramide analogs” (JNC Corporation, priority 2009, dated 2013)

Columns and labels:
[1] = Fluorescence spectrum and fluorescence quantum yield of CTMD analogs at 750 nM (Example 1); assay type: physicochemical; details: for Fluorescence quantum yield (PB) / λmax (PB)/nm: 67 mM phosphate buffer pH 7.4, 750 nM; for Fluorescence quantum yield (PB) / λmax (PB)/nm / λmax (MeOH)/nm / Fluorescence quantum yield (MeOH): 25° C., excited at 330 nm; for Fluorescence quantum yield (PB) / Fluorescence quantum yield (MeOH): relative to quinine sulfate 0.55; for λmax (PB)/nm / λmax (MeOH)/nm: fluorescence emission; for λmax (MeOH)/nm / Fluorescence quantum yield (MeOH): methanol, 750 nM; for fluorescence properties compared with known CTMD (c-4) or h-CTMD (c-13): from TABLE 1
Method: The fluorescence quantum yield of each CTMD analog synthesized was determined by the following procedure. The fluorescence spectrum was measured at 25° C. using a spectrofluorometer FP-6500 of JASCO (JASCO Corp., Tokyo). Specifically, the CTMD analog was dissolved in methanol (MeOH) or in 67 mM phosphate buffer (PB) (pH 7.4) at a final concentration of 750 nM using a quartz cell (light path length of 10 mm). Measurement was performed 3 times at the excited wavelength of 330 nm, emission/excitation band width of 3 nm, response of 0.5 second and scanning rate of 100 nm/min. The average was taken as the fluorescence spectrum of the compound. The fluorescence quantum yield was determined after the spectrum was corrected.
Quinine sulfate was used as a standard for determining the fluorescence quantum yield. After quinine sulfate (Wako Pure Chemical Industries) was dissolved in 0.1N sulfuric acid aqueous solution, measurement was performed at the excitation light of 366 nm under the conditions for fluorescence measurements described above. The relative fluorescence quantum yield (fluorescence intensity) of the compound was calculated relative to the quantum yield of quinine sulfate as being 0.55.

Structure (SMILES) | Fluorescence quantum yield (PB) [1] | λmax (PB)/nm [1] [nm] | λmax (MeOH)/nm [1] [nm] | Fluorescence quantum yield (MeOH) [1] | fluorescence properties compared with known CTMD (c-4) or h-CTMD (c-13) [1] | melting point
CC(=O)Oc1ccc(-c2cnc(N)c(Cc3ccccc3)n2)cc1 [c-19, 5-(4-Acetoxyphenyl)-2-amino-3-benzylpyrazine] | – | – | – | – | – | 183.5 to 185.5 °C
CC(=O)Oc1ccc(-c2cnc(N(S(=O)(=O)Cc3ccccc3)S(=O)(=O)Cc3ccccc3)c(Cc3ccccc3)n2)cc1 [c-20, 5-(4-Acetoxyphenyl)-3-benzyl-2-bis(benzylsulfonyl)aminopyrazine] | 0.026 | 420 | 399.5 | 0.185 | different fluorescence properties | 84 to 86.5 °C
COc1ccc(-c2cnc(NC(C)=O)c(Cc3ccccc3)n2)cc1 [c-24, 2-Acetylamino-3-benzyl-5-(4-methoxyphenyl)pyrazine] | 0.199 | 450.5 | 415.5 | 0.345 | – | –
CC(=O)Oc1ccc(CC(=O)Nc2ncc(-c3ccc(OC(C)=O)cc3)nc2Cc2ccccc2)cc1 [c-29, 5-(4-Acetoxyphenyl)-2-(4-acetoxyphenyl)acetylamino-3-benzylpyrazine] | 0.029 | 386.5 | 376.5 | 0.086 | – | 225 to 227 °C
CC(=O)Oc1ccc(-c2cnc(NC(=O)Cc3ccccc3)c(Cc3ccccc3)n2)cc1 [c-30, 5-(4-Acetoxyphenyl)-3-benzyl-2-(phenylacetylamino)pyrazine] | 0.040 | 391 | 373.5 | 0.008 | – | 228 to 231 °C
CC(=O)Oc1ccc(-c2cnc(NS(=O)(=O)Cc3ccccc3)c(Cc3ccccc3)n2)cc1 [c-32, 5-(4-Acetoxyphenyl)-3-benzyl-2-(benzylsulfonylamino)pyrazine] | 0.239 | 420 | 404 | 0.234 | different fluorescence properties | 240 to 241 °C
CC(=O)Nc1ncc(-c2ccc(OC(C)=O)cc2)nc1Cc1ccccc1 [c-33, 5-(4-Acetoxyphenyl)-2-acetylamino-3-benzylpyrazine] | 0.154 | 384 | 375 | 0.085 | – | 215.5 to 217 °C (dec.)
CC(=O)Oc1ccc(-c2cnc(N(S(C)(=O)=O)S(C)(=O)=O)c(Cc3ccccc3)n2)cc1 [c-39, 5-(4-Acetoxyphenyl)-3-benzyl-2-bis(methanesulfonyl)aminopyrazine] | 0.096 | 419 | 381.5 | 0.079 | different fluorescence properties | 165.5 to 167 °C
CC(=O)Oc1ccc(-c2cnc(N(S(=O)(=O)c3ccc([N+](=O)[O-])cc3)S(=O)(=O)c3ccc([N+](=O)[O-])cc3)c(Cc3ccccc3)n2)cc1 [c-40, 5-(4-Acetoxyphenyl)-3-benzyl-2-bis(4-nitrophenylsulfonyl)aminopyrazine] | 0.021 | 415 | 407.5 | 0.004 | different fluorescence properties | 227 to 229.5 °C (dec.)
O=S(=O)(Cc1ccccc1)N(c1ncc(-c2ccccc2)nc1Cc1ccccc1)S(=O)(=O)Cc1ccccc1 [c-42, 3-Benzyl-2-bis(benzylsulfonyl)amino-5-phenylpyrazine] | 0.011 | 420.5 | 398.5 | 0.180 | different fluorescence properties | 71.5 to 74.5 °C
CC(=O)Oc1ccc(-c2cnc(N(S(=O)(=O)Cc3ccc(I)cc3)S(=O)(=O)Cc3ccc(I)cc3)c(Cc3ccccc3)n2)cc1 [c-46, 5-(4-Acetoxyphenyl)-3-benzyl-2-bis(4-iodobenzylsulfonyl)aminopyrazine] | – | – | – | – | – | 166 to 167 °C

Second part, led by results:

Fluorescence quantum yield (PB) [1] | λmax (PB)/nm [1] [nm] | λmax (MeOH)/nm [1] [nm] | Fluorescence quantum yield (MeOH) [1] | fluorescence properties compared with known CTMD (c-4) or h-CTMD (c-13) [1] | Structure (SMILES) | melting point
0.003 | 399 | 424.5 | 0.010 | – | O=C(Cc1ccccc1)Nc1ncc(-c2ccc(O)cc2)nc1Cc1ccccc1 [c-13, 3-Benzyl-5-(4-hydroxyphenyl)-2-(phenylacetylamino)pyrazine] | 259 to 261 °C
0.137 | 435.5 | 429.5 | 0.066 | different fluorescence properties | O=S(=O)(Cc1ccccc1)Nc1ncc(-c2ccc(O)cc2)nc1Cc1ccccc1 [c-15, 3-Benzyl-2-benzylsulfonylamino-5-(4-hydroxyphenyl)pyrazine] | 144 to 147 °C (dec.)
0.181 | 450 | 415 | 0.342 | – | COc1ccc(-c2cnc(NC(=O)Cc3ccccc3)c(Cc3ccccc3)n2)cc1 [c-16, 3-Benzyl-5-(4-methoxyphenyl)-2-(phenylacetylamino)pyrazine] | 197.5 to 202 °C
0.003 | 445 | 417.5 | 0.003 | different fluorescence properties | COc1ccc(-c2cnc(NC(=S)Cc3ccccc3)c(Cc3ccccc3)n2)cc1 [c-17, 3-Benzyl-5-(4-methoxyphenyl)-2-(phenylthioacetylamino)pyrazine] | 45 to 47 °C
0.147 | 429 | 416.5 | 0.293 | different fluorescence properties | COc1ccc(-c2cnc(NS(=O)(=O)Cc3ccccc3)c(Cc3ccccc3)n2)cc1 [c-18, 3-Benzyl-2-benzylsulfonylamino-5-(4-methoxyphenyl)pyrazine] | 213 to 215 °C
0.059 | 421.5 | 417 | 0.303 | different fluorescence properties | COc1ccc(-c2cnc(N(S(=O)(=O)Cc3ccccc3)S(=O)(=O)Cc3ccccc3)c(Cc3ccccc3)n2)cc1 [c-21, 3-Benzyl-2-bis(benzylsulfonyl)amino-5-(4-methoxyphenyl)pyrazine] | 78 to 80 °C
0.096 | 437 | 429 | 0.056 | different fluorescence properties | CS(=O)(=O)Nc1ncc(-c2ccc(O)cc2)nc1Cc1ccccc1 [c-34, 3-Benzyl-5-(4-hydroxyphenyl)-2-(methanesulfonylamino)pyrazine] | –
0.107 | 435 | 430.5 | 0.069 | different fluorescence properties | Cc1ccc(S(=O)(=O)Nc2ncc(-c3ccc(O)cc3)nc2Cc2ccccc2)cc1 [c-35, 3-Benzyl-5-(4-hydroxyphenyl)-2-[(4-methylphenyl)sulfonylamino]pyrazine] | 181 to 182.5 °C
0.227 | 419.5 | 402.5 | 0.196 | different fluorescence properties | O=S(=O)(Cc1ccccc1)Nc1ncc(-c2ccccc2)nc1Cc1ccccc1 [c-37, 3-Benzyl-2-benzylsulfonylamino-5-phenylpyrazine] | 207 to 208.5 °C
